Laboratory results published in patent US7807623B2, “Use of pentagastrin to inhibit gastric acid secretion or as a diuretic” (The Regents of the University of California, priority 1999, dated 2010).
“And” between values parts separate entries of the source, which are not always exact repeats. Equal entries are not always repeated.

Columns and labels:
[1] = tested on: Pentagastrin-Induced Gastric Acid Secretion; experiment: Continuous pentagastrin infusion model: gastric acid output after single i.v. dose; type: in vivo, human; details: for Acid Output, Treatment Period 0-6 h / Acid Output, Treatment Period 6-12 h / Acid Output, Treatment Period 12-18 h / Acid Output, Treatment Period 18-24 h: continuous PG 1 μg/kg/h, mean ± SD; for duration of action (time AO remained <10 mEq/h) / onset of response (time until AO decreased to <10 mEq/h and remained below for 1 h): mean±SD
Procedure: After 60 min of pentagastrin infusion, subjects received a single dose of i.v. pantoprazole (20, 40, 80, or 120 mg), i.v. famotidine (20 mg), or saline placebo. […] The study protocol was approved by the UCLA Institutional Review Board and conducted according to the provisions of the Declaration of Helsinki and its amendments. Written informed consent was obtained from each participant before enrollment, and the identity of each patient was kept confidential. Each subject underwent a prestudy screening that included a physical examination, electrocardiogram (ECG), laboratory blood and urine analysis, and a pregnancy test for women. The laboratory test included a complete blood count, blood chemistry tests, a test for human immunodeficiency virus, a screening for hepatitis B and C, and a urine drug screen. Subjects were excluded from the study if abnormalities in these parameters were detected. Maximum AO (MAO) were also determined during the screening period. MAO was estimated by the subcutaneous injection of PG (6 μg/kg), after which four 15-min samples were collected and analyzed (Table 1). […] Subjects who completed the screening examination and were eligible for the study were assigned to one of six treatment groups to receive i.v. doses of pantoprazole (20, 40, 80, or 120 mg), i.v. famotidine (20 mg), or placebo (normal saline). […] To stimulate MAO, subjects received an infusion of PG for 25 h (Peptavalon, Wyeth-Ayerst; 1.0 μg/kg/h) begun 1 h before the start of the study drug infusion. Gastric aspirates were collected by means of nasogastric (NG) tube in 15-min fractions from 1 h before study drug treatment through the end of treatment h 2 and in 30 min fractions from h 3 through the end of h 24. The variables measured were onset of response (time until AO decreased to <10 mEq/h and remained below this level for 1 h), duration of response (time from onset until time when AO levels rose to >10 mEq/h and remained so for 1 h), and cumulative AO 15 over 24 h. […] On the evening before study day 1, participants were admitted to the UCLA Clinical Research Center. […] PG administration and MAO analyses were performed. […] Because no fluid or food p.o. was permitted during the study period, subjects received maintenance i.v. fluid to prevent dehydration. Vital signs and electrolytes were monitored during this time. […] (1973) Dig. […] Because this was an exploratory study, statistical analysis consisted of presenting means and standard deviations.

[2] = Adverse event monitoring in the pentagastrin infusion study; type: in vivo, human; details: for subjects who withdrew because of adverse events: healthy subjects under continuous PG infusion
Text: Adverse events were monitored continuously in the Clinical Research Center. Treatment-emergent adverse events were defined as adverse events not present at baseline or events present at baseline that worsened during treatment.

Na+-K+-ATPase = Na+-K+-ATPase activity in isolated renal tubules after meal; type: biochemical, rat; details: direct intrarenal infusion 80 pmoles/kg prior to the meal
Procedure: Renal tubules (cortical and medullary thick ascending limb of Henle) were isolated (Slobodyansky et al. (1995) Am. J. Physiol. 268: F279-F284) and immediately homogenized (in a Polytron) in 4° C. reaction buffer [4 mM MgCl2, 100 mM tris(hydroxymethyl)aminomethane HCl, pH7.2]. The dephosphorylation of tris(hydroxymethyl)aminomethane-p-nitrophenyl-phosphate was used as the index of Na^+-K^+-ATPase activity (Eisner et al. (1997) Am. J. Physiol. 273: R317-R323).

CCKB/gastrin receptor [3] = target: T1, CCKB/gastrin receptor (Rattus norvegicus, UniProt P30553); experiment: Meal gavage: renal hemodynamics, sodium excretion and urine volume; type: in vivo
T1 construct: act specifically at CCKB/gastrin receptors on renal tubular cells; from tissue; host or cells: kidney of living male Wistar-Kyoto rats (in vivo)
T1 sequence (P30553 1-452): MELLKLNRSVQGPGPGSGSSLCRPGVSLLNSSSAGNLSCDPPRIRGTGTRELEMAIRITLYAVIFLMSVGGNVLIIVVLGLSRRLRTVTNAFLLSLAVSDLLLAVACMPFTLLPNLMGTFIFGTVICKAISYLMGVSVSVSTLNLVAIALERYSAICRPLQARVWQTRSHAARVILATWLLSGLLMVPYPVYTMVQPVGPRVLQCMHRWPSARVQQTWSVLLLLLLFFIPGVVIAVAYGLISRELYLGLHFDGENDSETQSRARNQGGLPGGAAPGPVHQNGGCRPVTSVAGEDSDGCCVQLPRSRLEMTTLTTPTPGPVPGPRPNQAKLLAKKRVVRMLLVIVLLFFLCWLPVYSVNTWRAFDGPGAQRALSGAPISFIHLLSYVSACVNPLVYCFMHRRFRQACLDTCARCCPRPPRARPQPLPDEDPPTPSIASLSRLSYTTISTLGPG
Procedure: (§1) Male Wistar-Kyoto rats (300 grams, 10-12 weeks old) (Harlan Sprague Dawley, Indianapolis, Ind.) were maintained on a regular Purina rat chow diet. Catheters were placed into the external jugular and femoral veins and left carotid artery and systemic arterial pressure was monitored. The right suprarenal artery was cannulated with a PE-10 catheter heat stretched to 180 mm and a flow catheter was secured around the right renal artery (Transonic Systems, Ithaca, N.Y.). GFR was determined after an intravenous infusion of normal saline containing [^14C]-inulin (0.01 mCi/10 ml (New England Nuclear, Boston, Mass.) at a rate of 5 ml/100 g body wt. for 30 minutes followed by an infusion of 1.8 ml/100 g body wt/hr). After an equilibration period of 120 minutes, 20 minute collections were begun. Meal gavage studies were performed with 2.5 ml/hr of liquefied rat chow administered via gastric tube. Gastrin 17-1 (Peninsula Laboratories, CA) was diluted in normal saline and infused (10 pmoles/kg/hr) via the right renal artery catheter. Following a basal period, rats received either L-365,260 (80 pmoles/kg, 5 min bolus) or vehicle alone and 20 minute collection periods were begun for determination of sodium and water excretion.

CCKB/gastrin receptor [4] = target: T1, CCKB/gastrin receptor; experiment: Intrarenal gastrin infusion: renal hemodynamics, sodium excretion and urine volume; type: in vivo; details: L-365,260 80 pmoles/kg bolus after gastrin infusion
Procedure: as §1

[5] = cited from earlier work
[6] = 80 pmoles/kg bolus, more than 5-fold with meal alone
[7] = L-365,260 80 pmoles/kg 5 min bolus before meal gavage
[8] = single i.v. doses 80 and 120 mg

## NC(N)=Nc1nc(CSCCC(N)=NS(N)(=O)=O)cs1 [Famotidine, famotidine]
[1]; single i.v. dose 20 mg
  Peak inhibition of acid output: 94%
  hourly AO averaged over the 24-h period: 18.2 mEq/h
  loss of acid-suppressing effectiveness: lost effectiveness after 6 h
  Acid Output, Treatment Period 0-6 h: 4.4 ± 2.5 mEq/h
  Acid Output, Treatment Period 6-12 h: 17.7 ± 5.1 mEq/h
  Acid Output, Treatment Period 12-18 h: 25.8 ± 9.3 mEq/h
  Acid Output, Treatment Period 18-24 h: 25.0 ± 10.4 mEq/h
  duration of action (time AO remained <10 mEq/h): 6.5 ± 2.1 h
  onset of response (time until AO decreased to <10 mEq/h and remained below for 1 h): 0.5 ± 0.2 h
[2]
  subjects who withdrew because of adverse events: No subjects
[2]; i.v. 20 mg group under continuous PG infusion
  adverse events reported: Three subjects from the famotidine group complained of abdominal pain and dyspepsia and were noted to have small amounts of blood in their NG aspirate

## Cc1cccc(NC(=O)N[C@@H]2N=C(c3ccccc3)c3ccccc3N(C)C2=O)c1 [L-365,260]
Na+-K+-ATPase
  effect on meal induced inhibition of Na+/K+-ATPase activity: complete reversal
CCKB/gastrin receptor [3]; 80 pmoles/kg bolus
  inhibition of meal-stimulated increase in sodium and water excretion: up to 80%
CCKB/gastrin receptor [3]; 80 pmoles/kg bolus, compared to vehicle alone
  effect on meal-stimulated increase in urine flow rate: nearly completely inhibited
CCKB/gastrin receptor [3]; [6]
  meal-stimulated increase in fractional excretion of sodium (FeNa) in presence of antagonist: 2 fold
  meal-stimulated increase in urinary sodium (UNaV) in presence of antagonist: 2 fold
CCKB/gastrin receptor [3]; [7]
  effect on meal-induced increase in glomerular filtration rate (GFR): inhibited
  effect on meal-induced increase in renal blood flow (RBF): inhibited
CCKB/gastrin receptor [3]; meal gavage study period, 80 pmoles/kg bolus
  effect on Mean Arterial Pressure (MAP): No effect
CCKB/gastrin receptor [4]
  effect on gastrin-stimulated FeNa: returned to near baseline values
  effect on gastrin-stimulated changes in urine flow rate: completely antagonized
  effect on gastrin-stimulated elevation in urinary excretion of sodium: returned to near baseline values

## COc1ccnc(C[S+]([O-])c2nc3ccc(OC(F)F)cc3[nH]2)c1OC (stereo not shown) [Pantoprazole, pantoprazole]
[1]; 80 and 120 mg doses, all subjects, after 1 h and for the full 24-h period
  AO suppressed to: < 10 mEq/h
[1]; all i.v. doses (20, 40, 80, 120 mg)
  AO suppressed to: < 10 mEq/h
[1]; i.v., in general
  time after administration at which acid-suppressing activity was observed: 15 to 20 min
[1]; single i.v. dose 20 mg
  Peak inhibition of acid output: 83%
  hourly AO averaged over the 24-h period: 11.9 mEq/h
  Acid Output, Treatment Period 0-6 h: 11.7 ± 10.5 mEq/h
  Acid Output, Treatment Period 6-12 h: 13.6 ± 13.3 mEq/h
  Acid Output, Treatment Period 12-18 h: 15.1 ± 13.7 mEq/h
  Acid Output, Treatment Period 18-24 h: 14.2 ± 8.6 mEq/h
  duration of action (time AO remained <10 mEq/h): 8.4 ± 8.0 h
[1]; single i.v. dose 40 mg
  Peak inhibition of acid output: 90%
  hourly AO averaged over the 24-h period: 7.6 mEq/h
  Acid Output, Treatment Period 0-6 h: 8.1 ± 5.4 mEq/h
  Acid Output, Treatment Period 6-12 h: 4.8 ± 4.0 mEq/h
  Acid Output, Treatment Period 12-18 h: 7.3 ± 4.1 mEq/h
  Acid Output, Treatment Period 18-24 h: 10.1 ± 3.7 mEq/h
[1]; single i.v. dose 80 mg
  Peak inhibition of acid output: 99%
  hourly AO averaged over the 24-h period: 3.3 mEq/h
  Acid Output, Treatment Period 0-6 h: 2.4 ± 1.5 mEq/h
  Acid Output, Treatment Period 6-12 h: 1.2 ± 0.6 mEq/h
  Acid Output, Treatment Period 12-18 h: 3.7 ± 1.9 mEq/h
  Acid Output, Treatment Period 18-24 h: 6.1 ± 3.2 mEq/h
  duration of action (time AO remained <10 mEq/h): 21.2 ± 1.9 h
  onset of response (time until AO decreased to <10 mEq/h and remained below for 1 h): 0.8 ± 0.3 h
[1]; single i.v. dose 120 mg
  Peak inhibition of acid output: 100%
  hourly AO averaged over the 24-h period: 2.4 mEq/h
  Acid Output, Treatment Period 0-6 h: 1.3 ± 0.8 mEq/h
  Acid Output, Treatment Period 6-12 h: 0.7 ± 0.2 mEq/h
  Acid Output, Treatment Period 12-18 h: 3.7 ± 0.7 mEq/h
  Acid Output, Treatment Period 18-24 h: 5.2 ± 0.4 mEq/h
  onset of response (time until AO decreased to <10 mEq/h and remained below for 1 h): 0.4 ± 0.2 h
[1]; [8]
  duration of acid output suppression: > 20 h
  onset of action: < 1 h
[1]; single i.v. doses 80 and 120 mg, all subjects
  suppression of acid output: 99-100%
[1]; single i.v. doses 80 and 120 mg, all subjects, listed as pantoprazole
  suppression of acid output: > 90%
[1]; single i.v. doses 80 and 120 mg, listed as pantoprazole
  duration of acid output suppression: ~24 h and < 21 h
[2]
  subjects who withdrew because of adverse events: Three

## CSCC[C@H](NC(=O)[C@H](Cc1c[nH]c2ccccc12)NC(=O)CCNC(=O)OC(C)(C)C)C(=O)N[C@@H](CC(=O)O)C(=O)N[C@@H](Cc1ccccc1)C(N)=O [Pentagastrin, N-t-butyloxycarbonyl-Beta-alanyl-L-tryptophyl-L-methionyl-L-aspartyl-L-phenyl-alanyl amide]
[5]
  solubility in dimethylformamide and dimethylsulfoxide: soluble
  solubility in water, ethanol, ether, benzene, chloroform, ethyl acetate: almost insoluble
